pIC50: −log10 of the molar value. Read-outs that look alike come from different tables or passages of the source.
Columns and labels:
hypothalamic AMPK = experiment: Phospho-AMPK in hypothalamic slices by Western blotting; assay type: cell-based, mice; conditions: 30 min; for levels of phospho-AMPK: 500 nM drug; for effect on hypothalamic phospho-AMPK: various concentrations
From the text: FIGS. 1A-1F. AAPDs activate AMPK in hypothalamic slices.
The slices were dispersed in artificial cerebrospinal fluid buffer.

AMPK = experiment: Phospho-AMPK in tissues of intact mice by Western blotting; assay type: in vivo; conditions: for stimulation of hypothalamic phospho-AMPK in intact animals: triprolidine 3 mg/kg i.p., 3 h
Procedure: (§1) FIGS. 2A-2D. AAPDs activate AMPK in intact animals. […] Hypothalami were removed and tissue lysates analyzed for phospho-AMPK or α2-AMPK activity. […] Different parts of brain were isolated and α2-AMPK activity was assayed. Bars represent the mean±SE of three independent lysates performed in triplicate. (* Student's t-test, n=5)
FIGS. 5A-5F. […] Cerebellum and liver were removed and phosphorylated AMPK (AMPK-P) detected by western blotting. Each lane represents tissue from individual mouse. […] Hypothalamus, cerebellum and liver were removed and phosphorylated AMPK (AMPK-P) detected by western blotting. Each lane represents a tissue from individual mouse. […] Hypothalamus and cerebellum were removed and phosphorylated AMPK (AMPK-P) detected by western blotting. Each lane represents a tissue from individual mouse. […] Hypothalami were removed and phosphorylated AMPK (AMPK-P) detected by western blotting. Each lane represents a tissue from an individual mouse. […] Hypothalami were removed and AMPK activity monitored as described in Material and Methods. Bars represent the mean±SE of three independent lysates performed in triplicate.
(§2) Experiments were done at age 8-10 weeks. All drugs were administered by i.p. injection. […] Procedures were approved by guidelines of the Johns Hopkins University School of Medicine Institutional Animal Care and Use Committee.
All drugs were purchased from Toronto Research Chemicals Inc. (Toronto, Canada). […] The drug was diluted with 8.5 ml saline solution, and the appropriate doses were administrated to mice. For control mice, the same solution was injected without a drug. For in vitro assays, drugs were dissolved in DMSO.

histamine H1 receptors = target: T1, histamine H1 receptors (Rattus norvegicus, UniProt P31390); experiment: Histamine H1 receptor binding, [3H]mepyramine displacement in rat brain membranes; conditions: 12 concentrations 30 pM to 10 μM, means of 3 determinations
T1 construct: from tissue; host or cells: rat forebrain membranes
Procedure: Receptor binding was assayed using rat brain membranes incubated with [^3H]mepyramine and 12 concentrations of drugs ranging from 30 pM to 10 μM in triplicate. […] Hypothalamic Slices
Briefly, rats were killed by decapitation and the forebrains removed. Brains were homogenized in 30 vol of Na-K phosphate buffer, pH 7.5, and centrifuged at 48,000×g for 10 min. The tissue was resuspended in buffer and re-centrifuged for an additional 3 times. Tissue was resuspended in buffer at 15 mg/ml.
Tissue (0.2 ml) was added to tubes containing 25 μl of drug and 25 μl of [3H]mepyramine (30 nM). Non-specific binding was determined in the presence of 1 μM triprolidine.

phospho-AMPK = conditions: ziprasidone 3 mg/kg i.p., 3 h
Procedure: Immunohistochemistry was performed with an antibody specific for phospho-AMPK. (FIG. 4D) Quantification of immunohistochemistry. Bars represent the mean±SE of five independent slides. (*p<0.005, **p<0.001 Student's t-test, n=5)
C57BL/6 mice or HR1−/− mice (8-10 weeks) were perfused with 4% paraformaldehyde maintained at 37° C. Organs were post-fixed 2 h at room temperature and cryoprotected overnight at 4° C. (30% sucrose in PBS). Free-floating sections (45 μm) were quenched with 3% H2O2 in water for 10 min at room temperature, washed in TBS-T (16 mM Tris pH 7.4, 140 mM sodium chloride, and 0.1% tween-20), and antigen retrieved for 30 min in a 70° C. water bath (10 mM sodium citrate in TBS-T). Sections were blocked (5% NGS in TBS-T) for 1 h at room temperature and incubated with a mouse anti-phospho-AMPKα antibody (Cell Signaling, Danvers, Mass.) diluted 1:200 into the blocking solution overnight at 4° C. Subsequent washes were conducted in TBST, and labeling was visualized with the Vectastain Elite ABC kit (Vector Laboratories, Burlingame, Calif.). Images were quantified with AlphaEaseFC program.

α2-AMPK = α2-AMPK activity in tissue lysates of intact mice; assay type: in vivo; conditions: leptin 3 mg/kg
Procedure: as §1, §2

T1 sequence (P31390 whole entry): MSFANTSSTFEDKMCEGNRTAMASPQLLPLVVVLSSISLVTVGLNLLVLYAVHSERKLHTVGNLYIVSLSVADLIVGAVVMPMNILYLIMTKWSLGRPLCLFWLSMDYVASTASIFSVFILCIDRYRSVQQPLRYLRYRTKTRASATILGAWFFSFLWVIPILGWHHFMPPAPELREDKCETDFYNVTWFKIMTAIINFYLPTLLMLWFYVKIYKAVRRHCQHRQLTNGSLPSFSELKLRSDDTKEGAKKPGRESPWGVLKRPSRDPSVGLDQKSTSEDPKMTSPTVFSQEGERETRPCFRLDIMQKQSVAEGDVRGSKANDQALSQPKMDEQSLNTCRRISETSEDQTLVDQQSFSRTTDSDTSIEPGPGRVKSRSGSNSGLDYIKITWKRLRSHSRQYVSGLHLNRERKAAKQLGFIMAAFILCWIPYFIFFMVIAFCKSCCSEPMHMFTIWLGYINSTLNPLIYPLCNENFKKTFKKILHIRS

NCCc1c[nH]cn1 [histamine]
effect of histamine on phospho-AMPK (hypothalamic AMPK; different concentrations of histamine): decreases

Cc1ccc(/C(=C\CN2CCCC2)c2ccccn2)cc1 [triprolidine]
stimulation of phospho-AMPK (hypothalamic AMPK; triprolidine 50 or 500 nM vs clozapine 200 nM): to the same extent as clozapine
stimulation of hypothalamic phospho-AMPK in intact animals (AMPK): to the same extent as clozapine
stimulation of hypothalamic phospho-AMPK in intact animals (AMPK; listed as Triprolidine): activates

Cc1nc2n(c(=O)c1CCN1CCC(c3noc4cc(F)ccc34)CC1)CCCC2 [Risperidone]
levels of phospho-AMPK (hypothalamic AMPK): fail to stimulate

O=C1Cc2cc(CCN3CCN(c4nsc5ccccc45)CC3)c(Cl)cc2N1 [Ziprasidone]
levels of phospho-AMPK (hypothalamic AMPK): fail to stimulate
pIC50 (histamine H1 receptors): 6.82
phospho-AMPK in the paraventricular nucleus / hypothalamus (phospho-AMPK): fails to alter
phospho-AMPK in the paraventricular nucleus / hypothalamus (phospho-AMPK; listed as Ziprasodine): no effect

O=C(CCCN1CCC(O)(c2ccc(Cl)cc2)CC1)c1ccc(F)cc1 [Haloperidol]
levels of phospho-AMPK (hypothalamic AMPK): fail to stimulate

insulin
effect on hypothalamic phospho-AMPK (hypothalamic AMPK): reductions

leptin
effect on hypothalamic phospho-AMPK (hypothalamic AMPK): reductions
hypothalamic AMPK catalytic activity (α2-AMPK): reduces
hypothalamic phospho-AMPK (AMPK; intact mice, leptin 3 mg/kg): reduces

O=C1CCc2ccc(OCCCCN3CCN(c4cccc(Cl)c4Cl)CC3)cc2N1 [Aripipirazole]
levels of phospho-AMPK (hypothalamic AMPK): fail to stimulate
pIC50 (histamine H1 receptors): < 5.52
